Test results reported in US20100035756A1, “TRIAZOLOPHYRIDINE DERIVATIVES AS HERBICIDES” (SYNGENTA LIMITED, priority 2006, published 2010).

Key:
Type in all cases: in vivo
Agrostis tenuis = test: Microscreen (pre-emergence), Example B3; details: preemergent application, 250 g/ha, evaluated 8 days later, 100%=total damage
Stellaria media = test: Microscreen (pre-emergence), Example B3; details: preemergent application, 250 g/ha, evaluated 8 days later, 100%=total damage
Nasturtium officinale = test: Microscreen (pre-emergence), Example B3; details: preemergent application, 250 g/ha, evaluated 8 days later, 100%=total damage
Amaranthus retroflexus = test: Microscreen (pre-emergence), Example B3; details: preemergent application, 250 g/ha, evaluated 8 days later, 100%=total damage
Setaria italica = test: Microscreen (pre-emergence), Example B3; details: preemergent application, 250 g/ha, evaluated 8 days later, 100%=total damage
Digitaria sanguinalis = test: Microscreen (pre-emergence), Example B3; details: preemergent application, 250 g/ha, evaluated 8 days later, 100%=total damage
Solanum nigrum = test: Microscreen (pre-emergence), Example B3; details: preemergent application, 250 g/ha, evaluated 8 days later, 100%=total damage
[1] = tested on: Monocotyledonous and dicotyledonous test plants; test: Herbicidal action prior to emergence of the plants (pre-emergence action), Example B1; details: preemergence application, 250 g/ha, evaluated after 4 weeks, 100%=total damage, 0%=no damage
Description: (§1) Monocotyledonous and dicotyledonous test plants are sown in seed trays in standard soil. Immediately after sowing, the test compounds are applied by spraying in the form of an aqueous suspension (prepared from a wettable powder (Example F3, b) according to WO 97/34485) or in the form of an emulsion (prepared from an emulsifiable concentrate (Example F1, c) according to WO 97/34485) in a concentration of 250 g/ha. The test plants are then grown in a greenhouse under optimum conditions. After a 4-week test period, the test is evaluated (100%=total damage to plant; 0%=no damage to plant; NC not evaluated).

[2] = tested on: Monocotyledonous and dicotyledonous test plants; test: Herbicidal action after emergence of the plants (post-emergence herbicidal action), Example B2; details: postemergent application, 125 g/ha, 2- to 3-leaf stage, evaluated after 2-3 weeks, 100%=total damage
Description: as §1, with “When the test plants are at the 2- to 3-leaf stage,” for “Immediately after sowing,”, “125” for “250”, “grown on” for “grown”, “2- to 3-week” for “4-week”, “plant).” for “plant; NC not evaluated).”

| SMILES | herbicidal damage, Agrostis (Agrostis tenuis) [%] | herbicidal damage, Stellaria (Stellaria media) [%] | herbicidal damage, Nasturtium (Nasturtium officinale) [%] | herbicidal damage, Amaranthus (Amaranthus retroflexus) [%] | herbicidal damage, Setaria (Setaria italica) [%] | herbicidal damage, Digitaria (Digitaria sanguinalis) [%] | herbicidal damage, Solanum (Solanum nigrum) [%] | herbicidal damage, ABUTH [1] [%] | herbicidal damage, AMARE [1] [%] | herbicidal damage, BRAPL [1] [%] | herbicidal damage, DIGSA [1] [%] | herbicidal damage, ECHCG [1] [%] | herbicidal damage, SETFA [1] [%] | herbicidal damage, STEME [1] [%] | herbicidal damage, VERPE [1] [%] | herbicidal damage, ABUTH [2] [%] | herbicidal damage, AMARE [2] [%] | herbicidal damage, CHEAL [2] [%] | herbicidal damage, DIGSA [2] [%] | herbicidal damage, SETFA [2] [%] | further results |
| --- | --- | --- | --- | --- | --- | --- | --- | --- | --- | --- | --- | --- | --- | --- | --- | --- | --- | --- | --- | --- | --- |
| Cc1nnc2c(C(=O)C3=C(O)C4(CCC3=O)CC4)ccc(C(F)(F)F)n12 [41.2] | 100 | 90 | 100 | 100 | 80 | 100 | 100 | 80 | 100 | 80 | 100 | 100 | 80 | 70 | 90 |  |  |  |  |  |  |
| CCCC1CCC(=O)C(C(=O)c2ccc(C(F)(F)F)n3c(C)nnc23)=C1O (stereo not drawn) [41.6] | 100 | 80 | 100 | 100 | 0 | 90 | 90 | 70 | 100 | 60 | 90 | 70 | 70 | 50 | 50 | 80 | 80 | 80 | 80 | 70 | herbicidal damage, SINAR [2]: 80%; herbicidal damage, VERPE [2]: 80%; herbicidal damage, XANST [2]: 80% |
| Cc1nnc2c(C(=O)C3C(=O)C4CCC(C4)C3=O)ccc(C(F)(F)F)n12 (stereo not drawn) [Compound 1.4, 3-(3-Methyl-5-trifluoromethyl-[1,2,4]triazolo[4,3-a]pyridine-8-carbonyl)-bicyclo[3.2.1]octane-2,4-dione] | 50 | 80 | 90 | 90 | 70 | 90 | 90 | 100 | 100 | 70 | 100 | 90 | 90 | 100 | 100 | 70 | 70 | 90 | 80 | 90 | herbicidal damage, SINAR [2]: 80%; herbicidal damage, VERPE [2]: 80%; herbicidal damage, XANST [2]: 70% |
| CCc1nnc2c(C(=O)C3=C(O)C4CCC(C4)C3=O)ccc(C(F)(F)F)n12 (stereo not drawn) [Compound 1.5] | 100 | 60 | 80 | 30 | 50 | 80 | 100 | 100 | 100 | 60 | 100 | 60 | 80 | 100 | 70 | 90 | 70 | 80 | 70 | 60 | herbicidal damage, SINAR [2]: 80%; herbicidal damage, VERPE [2]: 70%; herbicidal damage, XANST [2]: 80% |
| O=C(C1=C(O)C2CCC(C2)C1=O)c1ccc(C(F)(F)F)n2c(C3CC3)nnc12 (stereo not drawn) [Compound 1.8] | 100 | 80 | 100 | 0 | 100 | 100 | 90 | 100 | 100 | 100 | 100 | 40 | 60 |  | 70 | 90 | 90 | 90 | 80 | 80 | herbicidal damage, SINAR [2]: 90%; herbicidal damage, VERPE [2]: 100%; herbicidal damage, XANST [2]: 90% |
| Cc1nnc2c(C(=O)C3=C(O)CCCC3=O)ccc(C(F)(F)F)n12 [Compound 3.4] | 100 | 70 | 80 | 80 | 60 | 100 | 0 | 80 | 60 | 80 | 70 | 70 | 30 | 30 | 50 | 90 | 80 | 60 | 80 | 80 | herbicidal damage, SINAR [2]: 90%; herbicidal damage, VERPE [2]: 100%; herbicidal damage, XANST [2]: 80% |
| Cc1nnc2c(C(=O)C3=C(O)CC(C)CC3=O)ccc(C(F)(F)F)n12 (stereo not drawn) [Compound 4.3] | 100 | 80 | 100 | 100 | 60 | 100 | 100 | 70 | 100 | 100 | 100 | 100 | 40 | 80 | 100 |  |  |  |  |  |  |
| CC1(C)C(=O)C(C(=O)c2ccc(C(F)(F)F)n3c(-c4ccc(Cl)cc4)nnc23)=C(O)C(C)(C)C1=O [Compound 5.10] |  |  |  |  |  |  |  | 100 | 100 | 20 | 40 | 20 | 0 | 30 |  | 80 | 80 | 70 | 20 | 30 | herbicidal damage, SINAR [2]: 80%; herbicidal damage, VERPE [2]: 100%; herbicidal damage, XANST [2]: 80% |
| Cc1nnc2c(C(=O)c3cnn(C)c3O)ccc(C(F)(F)F)n12 [Compound 6.3] |  |  |  |  |  |  |  | 10 | 70 |  | 30 | 30 | 0 | 40 | 80 | 60 | 90 | 70 | 80 | 60 | herbicidal damage, SINAR [2]: 80%; herbicidal damage, VERPE [2]: 80%; herbicidal damage, XANST [2]: 80% |
